Where two headings read alike, the source gives them in different places.
Target: nAChRs comprised of α4 and β2 subunits (Rattus norvegicus, UniProt P09483+P12390)
Assay: In vitro inhibition of 3H-cytisine binding
Source text: In Vitro Inhibition of ^3H-Cytisine Binding
Molecular biology studies have elucidated that there are at least ten nicotinic receptor genes in the brain. The predominant subtype with high affinity for nicotine is comprised of α4 and β2 subunits. nAChRs of the latter type can selectively be labelled by the nicotine agonist ^3H-cytisine.
A standard assay for determining in vitro inhibition of ^3H-cytisine binding is described in e.g. WO 02/096911. When subjected to this test the compounds of the invention show inhibitory activity on the micromolar or sub-micromolar range.

nAChRs comprised of α4 and β2 subunits, sequence (P09483 31-630): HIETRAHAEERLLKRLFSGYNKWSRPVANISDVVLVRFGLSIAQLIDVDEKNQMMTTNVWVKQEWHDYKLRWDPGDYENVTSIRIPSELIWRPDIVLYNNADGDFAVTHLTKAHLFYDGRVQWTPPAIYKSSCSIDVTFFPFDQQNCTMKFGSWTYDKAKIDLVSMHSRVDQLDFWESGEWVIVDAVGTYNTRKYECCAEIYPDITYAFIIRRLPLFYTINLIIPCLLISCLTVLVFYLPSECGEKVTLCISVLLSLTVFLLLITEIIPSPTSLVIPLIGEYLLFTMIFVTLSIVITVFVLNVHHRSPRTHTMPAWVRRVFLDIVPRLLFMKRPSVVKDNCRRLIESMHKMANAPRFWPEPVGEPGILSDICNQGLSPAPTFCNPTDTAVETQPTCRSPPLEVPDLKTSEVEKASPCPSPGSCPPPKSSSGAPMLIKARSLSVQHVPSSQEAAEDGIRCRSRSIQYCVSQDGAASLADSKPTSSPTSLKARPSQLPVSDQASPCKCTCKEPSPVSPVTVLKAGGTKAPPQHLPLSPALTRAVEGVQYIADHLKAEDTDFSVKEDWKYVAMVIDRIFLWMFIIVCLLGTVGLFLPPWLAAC
nAChRs comprised of α4 and β2 subunits, sequence (P12390 25-500): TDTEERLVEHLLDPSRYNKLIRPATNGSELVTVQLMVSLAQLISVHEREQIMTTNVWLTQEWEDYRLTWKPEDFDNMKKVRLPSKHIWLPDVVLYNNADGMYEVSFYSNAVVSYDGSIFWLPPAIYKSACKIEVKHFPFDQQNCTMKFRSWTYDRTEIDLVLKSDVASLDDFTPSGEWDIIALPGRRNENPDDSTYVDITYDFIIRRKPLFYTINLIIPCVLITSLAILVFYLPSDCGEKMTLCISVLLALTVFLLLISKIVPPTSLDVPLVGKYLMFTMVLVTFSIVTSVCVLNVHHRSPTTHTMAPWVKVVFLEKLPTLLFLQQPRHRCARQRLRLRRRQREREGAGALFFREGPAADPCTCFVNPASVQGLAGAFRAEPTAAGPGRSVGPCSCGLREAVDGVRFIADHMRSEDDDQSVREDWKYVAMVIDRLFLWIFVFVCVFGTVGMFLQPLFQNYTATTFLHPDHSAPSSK

| SMILES | IC50 [nM] | IC50 (3H-cytisine as radioligand, standard assay as described in WO 02/096911, read-out: In vitro Inhibition of 3H-cytisine Binding IC50) [nM] |
| --- | --- | --- |
| c1cncc(N2CC3CCCC(C2)N3)c1 [Compound B1, 3-Pyridin-3-yl-3,9-diaza-bicyclo[3.3.1]nonane] | 2.5 |  |
| CN1C2CCCC1CN(c1cncc(Cl)c1)C2 [Compound A1, 3-(5-Chloro-pyridin-3-yl)-9-methyl-3,9-diaza-bicyclo[3.3.1]nonane] | 6.3 |  |
| CN1C2CCCC1CN(c1cccnn1)C2 [Compound C1, 9-Methyl-3-pyridazin-3-yl-3,9-diaza-bicyclo[3.3.1]nonane] |  | 460 |

From patent US7687523B2, “3-heteroaryl-3,9-diazabicyclo[3.3.1]nonane derivatives as nicotinic acetylcholine receptor agonists” (Neurosearch A/S, priority 2006, dated 2010)
